Patent publication US8822503B2, “2-pyridone compounds” (Taisho Pharmaceutical Co., Ltd, priority 2009, dated 2014)

Target: T1, human liver GK (Homo sapiens, UniProt P35557)
T1 construct: GST (glutathione S-transferase) (N); made in house; host or cells: E. coli
T1 sequence (P35557 1-466 isoform P35557-2): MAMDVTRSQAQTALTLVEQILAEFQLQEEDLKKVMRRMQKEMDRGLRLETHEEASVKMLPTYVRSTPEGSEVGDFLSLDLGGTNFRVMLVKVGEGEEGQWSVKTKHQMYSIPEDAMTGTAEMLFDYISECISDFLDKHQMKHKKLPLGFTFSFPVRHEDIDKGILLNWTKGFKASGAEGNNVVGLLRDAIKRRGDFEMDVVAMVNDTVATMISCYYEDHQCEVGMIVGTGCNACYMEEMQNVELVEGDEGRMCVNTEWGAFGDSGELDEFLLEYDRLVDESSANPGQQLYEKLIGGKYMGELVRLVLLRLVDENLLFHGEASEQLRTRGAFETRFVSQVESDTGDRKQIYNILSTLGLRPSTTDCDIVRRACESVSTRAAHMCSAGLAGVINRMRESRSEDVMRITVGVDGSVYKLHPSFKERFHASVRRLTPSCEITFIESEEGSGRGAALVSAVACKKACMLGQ
Assay: GK activation test
Format: biochemical
Conditions: test compound concentration needed to activate 50% of maximum activation ability; 4 mM 14C-labeled glucose, 2 mM ATP, room temperature, 20 minutes
How it was run: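 GST-tagged human liver GK from E. coli (0.24 μg/well) with 4 mM 14C-glucose, 2 mM ATP in Hepes-KOH pH 7.1, KCl, MgCl2, DTT, 1% DMSO, 20 min room temperature. Labeled glucose 6-phosphate captured on anion resin, eluted and counted. EC50 = concentration giving half of maximal activation.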

Compound	EC50 [µM]
O=C1CC[C@H](/C=C(\c2ccc(SCCCO)c(Cl)c2)c2ccc(C(F)(F)F)c(=O)[nH]2)C1 [Example 1-82, 6-{(E)-1-{3-Chloro-4-[(3-hydroxypropyl)sulfanyl]phenyl}-2-[(1S)-3-oxocyclopentyl]ethenyl}-3-(trifluoromethyl)pyridin-2(1H)-one]	0.01 to 0.5
CCN(CC)CCCOc1ccc(/C(=C\[C@H]2CCC(=O)C2)c2ccc(C(F)(F)F)c(=O)[nH]2)cc1Cl [Example 1-83, 6-{(E)-1-{3-Chloro-4-[3-(diethylamino)propoxy]phenyl}-2-[(1S)-3-oxocyclopentyl]ethenyl}-3-(trifluoromethyl)pyridin-2(1H)-one]	0.5 to 3
CCN(CC)CCCSc1ccc(/C(=C\[C@H]2CCC(=O)C2)c2ccc(C(F)(F)F)c(=O)[nH]2)cc1Cl [Example 1-84, 6-{(E)-1-(3-Chloro-4-{[3-(diethylamino)propyl]sulfanyl}phenyl)-2-[(1S)-3-oxocyclopentyl]ethenyl}-3-(trifluoromethyl)pyridin-2(1H)-one]	0.5 to 3
CSc1ccc(/C(=C\[C@H]2CCC(O)C2)c2ccc(C3CC3)c(=O)[nH]2)cc1Cl (stereo partly drawn) [Example 1-85, 6-{(E)-1-[3-Chloro-4-(methylsulfanyl)phenyl]-2-[(1S)-3-hydroxycyclopentyl]ethenyl}-3-cyclopropylpyridin-2(1H)-one]	0.01 to 0.5
CCN(CC)CCCOc1ccc(/C(=C\[C@H]2CCC(O)C2)c2ccc(C(F)(F)F)c(=O)[nH]2)cc1Cl (stereo partly drawn) [Example 1-86, 6-{(E)-1-{3-Chloro-4-[3-(diethylamino)propoxy]phenyl}-2-[(1S)-3-hydroxycyclopentyl]ethenyl}-3-(trifluoromethyl)pyridin-2(1H)-one]	0.5 to 3
CCN(CC)CCCOc1ccc(/C(=C\[C@H]2CCC(O)C2)c2ccc(C3CC3)c(=O)[nH]2)cc1Cl (stereo partly drawn) [Example 1-87, 6-{(E)-1-{3-Chloro-4-[3-(diethylamino)propoxy]phenyl}-2-[(1S)-3-hydroxycyclopentyl]ethenyl}-3-cyclopropylpyridin-2(1H)-one]	0.5 to 3
COc1ccc(/C(=C\[C@H]2CC[C@@H](O)CC2)c2ccc(C3CC3)c(=O)[nH]2)cc1Cl [Example 1-88, 6-[(E)-1-(3-Chloro-4-methoxyphenyl)-2-(cis-4-hydroxycyclohexyl)ethenyl]-3-cyclopropylpyridin-2(1H)-one]	0.5 to 3
COc1ccc(/C(=C\[C@H]2CC[C@H](O)CC2)c2ccc(C3CC3)c(=O)[nH]2)cc1Cl [Example 1-89, 6-[(E)-1-(3-Chloro-4-methoxyphenyl)-2-(trans-4-hydroxycyclohexyl)ethenyl]-3-cyclopropylpyridin-2(1H)-one]	0.5 to 3
O=c1[nH]c(/C(=C/[C@H]2CC[C@H](O)CC2)c2ccc(SC3CC3)cc2)ccc1C(F)(F)F [Example 1-90, 6-[(E)-1-[4-(Cyclopropylsulfanyl)phenyl]-2-(trans-4-hydroxycyclohexyl)ethenyl]-3-(trifluoromethyl)pyridin-2(1H)-one]	0.01 to 0.5
O=c1[nH]c(/C(=C/[C@H]2CC[C@H](O)CC2)c2ccc(S(=O)(=O)C3CC3)cc2)ccc1C(F)(F)F [Example 1-91, 6-[(E)-1-[4-(Cyclopropylsulfonyl)phenyl]-2-(trans-4-hydroxycyclohexyl)ethenyl]-3-(trifluoromethyl)pyridin-2(1H)-one]	0.5 to 3
CSc1ccc(/C(=C\CCO)c2ccc(C3CC3)c(=O)[nH]2)cc1 [Example 1-92, 3-Cyclopropyl-6-{(1E)-4-hydroxy-1-[4-(methylsulfanyl)phenyl]but-1-en-1-yl}pyridin-2(1H)-one]	3 to 10
CS(=O)(=O)c1ccc(/C(=C\CCO)c2ccc(C3CC3)c(=O)[nH]2)cc1 [Example 1-93, 3-Cyclopropyl-6-{(1E)-4-hydroxy-1-[4-(methylsulfonyl)phenyl]but-1-en-1-yl}pyridin-2(1H)-one]	3 to 10
CSc1ccc(/C(=C\CCNC(C)=O)c2ccc(C3CC3)c(=O)[nH]2)cc1 [Example 1-94, N-{(3E)-4-(5-Cyclopropyl-6-oxo-1,6-dihydropyridin-2-yl)-4-[4-(methylsulfanyl)phenyl]but-3-en-1-yl}acetamide]	3 to 10
CC(=O)NCC/C=C(\c1ccc(S(C)(=O)=O)cc1)c1ccc(C2CC2)c(=O)[nH]1 [Example 1-95, N-{(3E)-4-(5-Cyclopropyl-6-oxo-1,6-dihydropyridin-2-yl)-4-[4-(methylsulfonyl)phenyl]but-3-en-1-yl}acetamide]	3 to 10
CSc1ccc(/C(=C\CCCO)c2ccc(C3CC3)c(=O)[nH]2)cc1 [Example 1-96, 3-Cyclopropyl-6-{(1E)-5-hydroxy-1-[4-(methylsulfanyl)phenyl]pent-1-en-1-yl}pyridin-2(1H)-one]	0.5 to 3
CS(=O)(=O)c1ccc(/C(=C\CCCO)c2ccc(C3CC3)c(=O)[nH]2)cc1 [Example 1-97, 3-Cyclopropyl-6-{(1E)-5-hydroxy-1-[4-(methylsulfonyl)phenyl]pent-1-en-1-yl}pyridin-2(1H)-one]	0.5 to 3
O=c1[nH]c(/C(=C/CCCO)c2ccc(SC3CC3)cc2)ccc1C(F)(F)F [Example 1-98, 6-{(1E)-1-[4-(Cyclopropylsulfanyl)phenyl]-5-hydroxypent-1-en-1-yl}-3-(trifluoromethyl)pyridin-2(1H)-one]	3 to 10
O=c1[nH]c(/C(=C/CCCO)c2ccc(S(=O)(=O)C3CC3)cc2)ccc1C(F)(F)F [Example 1-99, 6-{(1E)-1-[4-(Cyclopropylsulfonyl)phenyl]-5-hydroxypent-1-en-1-yl}-3-(trifluoromethyl)pyridin-2(1H)-one]	0.5 to 3
Cc1ccc(/C(=C/C2(CO)CC2)c2ccc(S(=O)(=O)C3CC3)cc2)[nH]c1=O [Example 1-100, 6-{(E)-1-[4-(Cyclopropylsulfonyl)phenyl]-2-[1-(hydroxymethyl)cyclopropyl]ethenyl}-3-methylpyridin-2(1H)-one]	3 to 10
C[C@@H](/C=C(\c1ccc(S(=O)(=O)C2CC2)cc1)c1ccc(C(F)(F)F)c(=O)[nH]1)CO [Example 1-101, 6-{(1E,3S)-1-[4-(Cyclopropylsulfonyl)phenyl]-4-hydroxy-3-methylbut-1-en-1-yl}-3-(trifluoromethyl)pyridin-2(1H)-one]	3 to 10
C[C@H](/C=C(\c1ccc(S(=O)(=O)C2CC2)cc1)c1ccc(C(F)(F)F)c(=O)[nH]1)CO [Example 1-102, 6-{(1E,3R)-1-[4-(Cyclopropylsulfonyl)phenyl]-4-hydroxy-3-methylbut-1-en-1-yl}-3-(trifluoromethyl)pyridin-2(1H)-one]	0.5 to 3
O=c1[nH]c(/C(=C/C2CCCC2)c2ccc(SC3CC3)cc2)ccc1Cl [Example 1-103, 3-Chloro-6-{(E)-2-cyclopentyl-1-[4-(cyclopropylsulfanyl)phenyl]ethenyl}pyridin-2(1H)-one]	0.01 to 0.5
O=c1[nH]c(/C(=C/C2CCCC2)c2ccc(S(=O)(=O)C3CC3)cc2)ccc1Cl [Example 1-104, 3-Chloro-6-{(E)-2-cyclopentyl-1-[4-(cyclopropylsulfonyl)phenyl]ethenyl}pyridin-2(1H)-one]	0.01 to 0.5
CC(=O)Nc1ccc(/C(=C\C2CCCC2)c2ccc(Cl)c(=O)[nH]2)cc1 [Example 1-105, N-{4-[(E)-1-(5-Chloro-6-oxo-1,6-dihydropyridin-2-yl)-2-cyclopentylethenyl]phenyl}acetamide]	0.5 to 3
